According to patent US20200138927A1, “NON-CROSS-LINKED […] […] […] FOR USE IN C[…]” (GlaxoSmithKline Biologicals SA, priority 2012, published 2020):
Values after ≈ are worked out from the molar mass of the structure shown.

Legend:
[1] = Adsorption to aluminium hydroxide; type: physicochemical
[2] = Solubility in water; type: physicochemical

SMILES: Cc1ccc2c(c1)nc(N)c1ncc(CCc3ccc(OCCOCCOCCC(F)(F)P(=O)(O)O)cc3C)cc12 [Compound K1]
- adsorption to aluminium hydroxide [1]: adsorbs well
- solubility [2]: ~4 mg/mL (≈ 6.78 mM)
